The source of these data is ChEMBL document CHEMBL4610114, “Fragment-Based Discovery of Pyrazolopyridones as JAK1 Inhibitors with Excellent Subtype Selectivity” (J Med Chem, 2020).

In brackets after ≈: the same amount, converted by molar mass.

The solubility is how much of the substance goes into solution per volume. A lower solubility goes with a poorly soluble substance. Broadly, the IC50 is the concentration that inhibits the measured activity by half. Low values mean higher potency, high ones lower potency. For orientation: logD means the decadic logarithm of the distribution of all forms, ionised or not, between an organic phase and buffer at a given pH.

Series [1] is described as follows: physchem. The conditions noted are these: PBS buffer, pH 7.4.
Description: Aqueous solubility in PBS buffer at pH 7.4 by HPLC analysis
Series [2] has as its target Non-receptor tyrosine-protein kinase TYK2 (Homo sapiens, UniProt P29597).
Series [3] addresses T1, Tyrosine-protein kinase JAK1 (Homo sapiens, UniProt P23458).
Description: Inhibition of JAK1 in human STAT6-bla-RA1 cells assessed as reduction in IL4-induced STAT6-signalling pre-incubated for 1 hrs before human recombinant IL4 addition and further incubated for 4 hrs fluorescence based assay
The nature of series [4]: physchem. The conditions noted are these: octanol/water.
Description: Lipophilicity, logD of the compound by shake flask assay
Series [5] deals with T2, Tyrosine-protein kinase JAK3 (Homo sapiens, UniProt P52333).
T2 sequence (P52333 whole entry): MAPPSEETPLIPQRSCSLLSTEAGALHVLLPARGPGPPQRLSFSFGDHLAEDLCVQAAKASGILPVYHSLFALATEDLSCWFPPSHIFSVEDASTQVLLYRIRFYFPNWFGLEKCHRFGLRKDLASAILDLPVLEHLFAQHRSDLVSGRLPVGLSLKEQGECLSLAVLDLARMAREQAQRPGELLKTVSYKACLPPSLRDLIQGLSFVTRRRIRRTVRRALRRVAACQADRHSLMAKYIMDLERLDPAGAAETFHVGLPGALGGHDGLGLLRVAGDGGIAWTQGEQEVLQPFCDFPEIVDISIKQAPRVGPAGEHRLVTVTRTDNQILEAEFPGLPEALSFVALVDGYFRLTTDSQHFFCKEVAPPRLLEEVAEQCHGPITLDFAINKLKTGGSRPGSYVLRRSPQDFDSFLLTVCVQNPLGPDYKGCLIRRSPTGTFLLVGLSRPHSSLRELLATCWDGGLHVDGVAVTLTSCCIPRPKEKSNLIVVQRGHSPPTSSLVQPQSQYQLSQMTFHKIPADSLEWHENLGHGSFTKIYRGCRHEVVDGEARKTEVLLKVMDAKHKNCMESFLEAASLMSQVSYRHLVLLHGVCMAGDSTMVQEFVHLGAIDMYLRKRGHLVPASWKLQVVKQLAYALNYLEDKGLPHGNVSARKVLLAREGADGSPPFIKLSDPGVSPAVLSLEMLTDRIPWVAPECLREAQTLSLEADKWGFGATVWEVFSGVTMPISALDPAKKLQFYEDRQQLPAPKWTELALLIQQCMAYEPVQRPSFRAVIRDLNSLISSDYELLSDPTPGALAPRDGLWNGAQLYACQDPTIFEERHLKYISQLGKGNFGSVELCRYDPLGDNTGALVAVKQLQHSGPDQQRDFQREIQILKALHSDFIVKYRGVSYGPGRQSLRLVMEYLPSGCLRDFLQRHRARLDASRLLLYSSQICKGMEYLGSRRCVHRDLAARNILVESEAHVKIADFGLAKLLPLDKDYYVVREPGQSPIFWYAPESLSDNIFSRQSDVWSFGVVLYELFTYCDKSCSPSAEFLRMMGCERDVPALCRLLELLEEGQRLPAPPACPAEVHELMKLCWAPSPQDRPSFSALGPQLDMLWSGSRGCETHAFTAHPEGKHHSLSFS

For series [6], the target named is T1, Tyrosine-protein kinase JAK1. This is another data set of the same source.
Series [7] concerns the target T3, Tyrosine-protein kinase JAK2 (Homo sapiens, UniProt O60674).
Series [8] has as its target T3, Tyrosine-protein kinase JAK2. The source holds these as a separate data set.
Description: Inhibition of JAK2 in human STAT5-irf1-bla TF1 cells assessed as reduction in EPO-induced STAT5-signalling pre-incubated for 1 hrs before EPO addition and further incubated for 4 hrs fluorescence based assay

Non-receptor tyrosine-protein kinase TYK2, sequence (P29597 whole entry): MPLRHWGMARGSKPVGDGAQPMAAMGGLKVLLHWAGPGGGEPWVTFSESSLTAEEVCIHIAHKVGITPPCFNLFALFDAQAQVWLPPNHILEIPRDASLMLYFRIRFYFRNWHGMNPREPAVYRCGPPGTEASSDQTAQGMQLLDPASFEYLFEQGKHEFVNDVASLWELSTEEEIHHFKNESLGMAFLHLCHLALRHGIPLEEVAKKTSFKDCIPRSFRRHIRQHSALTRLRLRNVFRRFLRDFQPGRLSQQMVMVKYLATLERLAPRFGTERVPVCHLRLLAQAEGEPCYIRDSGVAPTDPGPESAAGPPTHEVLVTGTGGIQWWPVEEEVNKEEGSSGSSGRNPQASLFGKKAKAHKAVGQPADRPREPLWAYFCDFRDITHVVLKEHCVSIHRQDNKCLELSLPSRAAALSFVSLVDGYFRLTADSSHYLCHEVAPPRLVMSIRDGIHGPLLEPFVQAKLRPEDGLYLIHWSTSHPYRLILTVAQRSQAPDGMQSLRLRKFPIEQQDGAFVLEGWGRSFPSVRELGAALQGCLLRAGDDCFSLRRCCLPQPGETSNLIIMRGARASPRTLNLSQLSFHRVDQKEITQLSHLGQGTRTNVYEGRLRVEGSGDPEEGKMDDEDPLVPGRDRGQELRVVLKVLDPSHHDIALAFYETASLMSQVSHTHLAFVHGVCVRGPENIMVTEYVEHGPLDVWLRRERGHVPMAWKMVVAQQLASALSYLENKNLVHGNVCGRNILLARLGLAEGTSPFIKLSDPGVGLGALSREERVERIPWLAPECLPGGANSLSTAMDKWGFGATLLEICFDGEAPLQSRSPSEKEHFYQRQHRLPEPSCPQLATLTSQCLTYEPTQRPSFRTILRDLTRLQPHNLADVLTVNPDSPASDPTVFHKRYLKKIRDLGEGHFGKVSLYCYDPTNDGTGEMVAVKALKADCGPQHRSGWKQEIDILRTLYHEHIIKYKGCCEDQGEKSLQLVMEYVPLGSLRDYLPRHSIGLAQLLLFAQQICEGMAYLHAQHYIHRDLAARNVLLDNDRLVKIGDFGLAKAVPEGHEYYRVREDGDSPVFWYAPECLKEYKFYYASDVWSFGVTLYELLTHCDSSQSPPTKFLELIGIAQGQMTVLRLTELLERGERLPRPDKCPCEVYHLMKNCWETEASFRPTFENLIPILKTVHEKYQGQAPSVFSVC
T3 sequence (O60674 whole entry): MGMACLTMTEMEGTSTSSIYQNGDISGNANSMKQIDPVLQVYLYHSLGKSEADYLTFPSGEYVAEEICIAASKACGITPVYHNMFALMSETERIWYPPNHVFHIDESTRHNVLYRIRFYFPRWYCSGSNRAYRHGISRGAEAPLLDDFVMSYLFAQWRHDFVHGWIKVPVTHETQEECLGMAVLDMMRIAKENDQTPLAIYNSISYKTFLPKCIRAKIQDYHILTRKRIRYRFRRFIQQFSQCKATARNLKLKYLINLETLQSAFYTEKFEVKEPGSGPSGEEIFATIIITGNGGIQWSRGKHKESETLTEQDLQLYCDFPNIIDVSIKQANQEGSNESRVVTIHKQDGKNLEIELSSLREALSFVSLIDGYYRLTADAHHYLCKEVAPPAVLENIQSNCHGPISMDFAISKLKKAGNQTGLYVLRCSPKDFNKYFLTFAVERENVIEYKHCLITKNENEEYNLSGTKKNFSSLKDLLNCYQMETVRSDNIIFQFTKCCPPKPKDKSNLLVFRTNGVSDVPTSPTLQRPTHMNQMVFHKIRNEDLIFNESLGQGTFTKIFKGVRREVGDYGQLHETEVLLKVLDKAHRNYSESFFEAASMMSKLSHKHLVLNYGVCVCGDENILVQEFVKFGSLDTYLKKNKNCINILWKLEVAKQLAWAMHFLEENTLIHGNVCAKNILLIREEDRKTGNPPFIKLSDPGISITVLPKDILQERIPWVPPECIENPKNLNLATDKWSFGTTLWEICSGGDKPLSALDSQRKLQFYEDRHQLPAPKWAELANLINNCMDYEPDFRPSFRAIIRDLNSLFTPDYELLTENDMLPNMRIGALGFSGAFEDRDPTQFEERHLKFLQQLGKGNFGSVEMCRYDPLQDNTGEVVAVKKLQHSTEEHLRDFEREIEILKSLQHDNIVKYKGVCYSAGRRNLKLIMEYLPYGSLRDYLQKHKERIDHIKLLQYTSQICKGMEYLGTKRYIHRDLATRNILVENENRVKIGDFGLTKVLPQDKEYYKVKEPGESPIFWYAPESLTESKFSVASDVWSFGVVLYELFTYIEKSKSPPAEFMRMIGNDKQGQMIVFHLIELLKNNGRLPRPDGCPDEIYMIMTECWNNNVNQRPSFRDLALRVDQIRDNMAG
T1 sequence (P23458 whole entry): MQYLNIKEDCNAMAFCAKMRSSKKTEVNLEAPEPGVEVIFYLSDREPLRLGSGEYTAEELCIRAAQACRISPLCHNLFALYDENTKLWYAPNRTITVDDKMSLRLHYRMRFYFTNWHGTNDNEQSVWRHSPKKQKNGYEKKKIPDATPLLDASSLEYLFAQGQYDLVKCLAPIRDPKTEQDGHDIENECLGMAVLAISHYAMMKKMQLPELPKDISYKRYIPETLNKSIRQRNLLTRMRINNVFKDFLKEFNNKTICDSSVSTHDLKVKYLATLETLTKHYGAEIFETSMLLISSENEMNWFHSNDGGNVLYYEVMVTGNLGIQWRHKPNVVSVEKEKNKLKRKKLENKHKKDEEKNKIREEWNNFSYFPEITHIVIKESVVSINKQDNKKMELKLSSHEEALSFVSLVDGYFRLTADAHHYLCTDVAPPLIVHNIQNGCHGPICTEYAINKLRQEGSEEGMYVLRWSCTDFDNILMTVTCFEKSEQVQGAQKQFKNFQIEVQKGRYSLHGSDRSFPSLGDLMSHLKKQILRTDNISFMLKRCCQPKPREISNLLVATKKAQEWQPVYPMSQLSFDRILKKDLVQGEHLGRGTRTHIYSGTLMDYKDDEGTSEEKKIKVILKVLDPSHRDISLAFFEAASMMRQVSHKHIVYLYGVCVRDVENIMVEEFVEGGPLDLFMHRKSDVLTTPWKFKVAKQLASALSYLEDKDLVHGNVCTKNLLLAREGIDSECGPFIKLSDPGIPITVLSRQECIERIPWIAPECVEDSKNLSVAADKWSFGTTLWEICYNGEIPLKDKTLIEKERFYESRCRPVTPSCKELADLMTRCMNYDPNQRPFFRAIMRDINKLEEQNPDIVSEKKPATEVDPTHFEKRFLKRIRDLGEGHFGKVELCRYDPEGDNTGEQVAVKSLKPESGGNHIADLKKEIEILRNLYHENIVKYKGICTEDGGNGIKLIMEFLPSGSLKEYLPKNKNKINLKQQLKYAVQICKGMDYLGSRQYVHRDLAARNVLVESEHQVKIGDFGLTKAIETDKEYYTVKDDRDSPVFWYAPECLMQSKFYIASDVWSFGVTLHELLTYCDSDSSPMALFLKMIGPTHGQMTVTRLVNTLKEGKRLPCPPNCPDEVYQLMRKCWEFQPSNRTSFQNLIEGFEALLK

The compound `Cc1[nH]nc2[nH]c(=O)cc([C@H]3CC[C@H](O)CC3)c12` yielded a solubility in the series “physchem [1]” of more than 85 µM. The half-maximal inhibitory concentration (IC50) in series [2] was found to be 4.2 µM; in series [3] it was 20 µM; in series [5] it was 1.7 µM; in series [6], 0.49 µM. The compound also yielded a logD in “physchem [4]” of 0.8.

For the compound `Cc1[nH]nc2[nH]c(=O)c(C#N)c(C3CCCCC3)c12`, the IC50 is 11 µM in series [2]; 17 µM in series [7]; 20 µM in series [3]; more than 40 µM in series [8]; 5.4 µM in series [5]; 2.1 µM in series [6].

`Cc1cc(=O)[nH]c2n[nH]c(C)c12` returned an IC50 in series [6] of 30 µM.

Compound `Cc1[nH]nc2[nH]c(=O)cc(-c3ccccc3)c12` had a solubility in “physchem [1]” of more than 90 µM. Also, the IC50 in series [2] is 3.9 µM; in series [7], 4.2 µM; in series [3], more than 50 µM; in series [5], 2.6 µM; in series [6], 2.2 µM. Further, the pH-dependent lipophilicity (logD) in “physchem [4]” is 2.2.

Compound `Cc1cc(=O)[nH]c2nn(C)c(C)c12` gave a concentration for half-maximal inhibition (IC50) in series [6] of more than 500 µM.

Take `Cc1[nH]nc2[nH]c(=O)cc([C@H]3CC[C@H](NC(=O)[C@H]4CC4(F)F)CC3)c12`: the solubility in “physchem [1]” came to 29 µM (≈ 10.2 µg/mL). The IC50 was 2.7 µM in series [2]; 1.7 µM in series [7]; more than 40 µM in series [3]; more than 40 µM in series [8]; 2.7 µM in series [5]; 0.078 µM in series [6]. This compound came in with a logD in “physchem [4]” of 1.3.

For `Cc1[nH]nc2[nH]c(=O)cc([C@H]3CC[C@H](N)CC3)c12`, the IC50 is 16 µM in series [2]; 18 µM in series [7]; more than 40 µM in series [3]; more than 40 µM in series [8]; 11 µM in series [5]; 0.82 µM in series [6].

The compound `Cc1cc(O)nc2c1c(C)nn2C` gave a concentration for half-maximal inhibition (IC50) in series [6] of more than 900 µM.

As to `CCc1[nH]nc2[nH]c(=O)cc(C3CCCCC3)c12`, the half-inhibitory concentration (IC50) in series [7] was 2.7 µM; in series [3], 2.5 µM; in series [8], more than 40 µM; in series [5], 1.6 µM; in series [6] it was 0.46 µM. The logD in “physchem [4]” was determined as 3.

Turning to `Cc1[nH]nc2[nH]c(=O)cc([C@H]3CC[C@H](CCC#N)CC3)c12`, in the series “physchem [1]”, the solubility worked out at 18 µM (≈ 5.12 µg/mL). The 50% inhibitory concentration (IC50) amounted to 0.16 µM in series [7]; 1.2 µM in series [3]; 13 µM in series [8]; 0.28 µM in series [5]; 0.032 µM in series [6]. In addition, in the series “physchem [4]”, the logD was found to be 1.8.

Consider `Cc1[nH]nc2[nH]c(=O)c(CO)c(C3CCCCC3)c12`, for which, in the series “physchem [1]”, the concentration in solution (solubility) came to 100 µM (≈ 26.1 µg/mL). The half-inhibitory concentration (IC50) in series [2] is 0.65 µM; in series [7], 2.8 µM; in series [3] it was 4.8 µM; in series [8], more than 40 µM; in series [5] it was 1.4 µM; in series [6], 0.14 µM. The logD in “physchem [4]” worked out at 2.1.

Turning to `Cc1[nH]nc2[nH]c(=O)cc(C3CCCC3)c12`, the solubility in “physchem [1]” is 39 µM (≈ 8.47 µg/mL). Further, the IC50 is 0.83 µM in series [2]; 13 µM in series [7]; 4.3 µM in series [3]; more than 40 µM in series [8]; 0.67 µM in series [5]; 0.072 µM in series [6]. In addition, the logD in “physchem [4]” came to 2.2.

Consider `Cc1[nH]nc2[nH]c(=O)cc([C@H]3C[C@H]4CC[C@@H]3C4)c12` (racemic), for which, in the series “physchem [1]”, the solubility was 64 µM (≈ 15.6 µg/mL). The IC50 is 0.43 µM in series [2]; 0.43 µM in series [7]; 0.85 µM in series [3]; 22 µM in series [8]; 0.24 µM in series [5]; 0.046 µM in series [6]. The compound also came in with a log distribution coefficient (logD) in “physchem [4]” of 2.8.

Take `Cc1[nH]nc2[nH]c(=O)cc([C@H]3CCCC[C@H]3C)c12` (racemic): the concentration in solution in the series “physchem [1]” (solubility) came to 8 µM (≈ 1.96 µg/mL). Besides, the IC50 is 0.7 µM in series [2]; 0.34 µM in series [7]; 1.3 µM in series [3]; 8.9 µM in series [8]; 0.11 µM in series [5]; 0.04 µM in series [6]. In “physchem [4]”, this compound came in with a logD of 3.

In the case of `Cc1[nH]nc2[nH]c(=O)cc(C3CCCCC3)c12`, the concentration in solution in the series “physchem [1]” (solubility) was 4 µM (≈ 0.925 µg/mL). Also, the half-maximal inhibitory concentration (IC50) in series [2] is 0.67 µM; in series [7], 1.3 µM; in series [3], 3.7 µM; in series [8], more than 40 µM; in series [5], 0.55 µM; in series [6], 0.13 µM. The compound also returned a logD in the series “physchem [4]” of 2.8.

For `Cc1[nH]nc2[nH]c(=O)cc([C@H]3CC[C@H](NC(=O)C4CCCC4)CC3)c12`, the concentration for half-maximal inhibition (IC50) was 6.8 µM in series [2]; 1.6 µM in series [7]; 9.1 µM in series [3]; more than 30 µM in series [8]; 4.8 µM in series [5]; 0.11 µM in series [6].

In series [6], `O=c1cc(C(F)F)c2c[nH]nc2[nH]1` returned an IC50 of more than 100 µM.

In the case of `Cc1[nH]nc2[nH]c(=O)cc([C@@H]3C[C@H]4CC[C@@H]3C4)c12` (racemic), the solubility in “physchem [1]” turned out to be 33 µM (≈ 8.03 µg/mL). Moreover, the IC50 is 0.15 µM in series [2]; 0.38 µM in series [7]; 1 µM in series [3]; more than 40 µM in series [8]; 0.18 µM in series [5]; 0.044 µM in series [6]. Moreover, in “physchem [4]”, the logD is 2.7.

In “physchem [4]”, `CCCS(=O)(=O)N[C@H]1C[C@@H](N(C)c2ncnc3[nH]ccc23)C1` [ABROCITINIB] displayed a logD of 2.

Turning to `Cc1[nH]nc2[nH]c(=O)cc([C@H]3CC[C@H](NC(=O)[C@@H]4CC4(F)F)CC3)c12`, the concentration in solution in “physchem [1]” (solubility) was 43 µM (≈ 15.1 µg/mL). Moreover, the 50% inhibitory concentration (IC50) in series [2] is 0.22 µM; in series [7], 0.12 µM; in series [3], 1.7 µM; in series [8] it was more than 7 µM; in series [5], 0.48 µM; in series [6], 0.0064 µM. Moreover, the log distribution coefficient (logD) in “physchem [4]” was found to be 1.3.

As to `Cc1[nH]nc2[nH]c(=O)cc([C@H]3CC[C@H](NS(=O)(=O)CC4CCC4)CC3)c12`, the half-inhibitory concentration (IC50) in series [7] was 0.57 µM; in series [3], 3.2 µM; in series [8] it was more than 10 µM; in series [5], 1.7 µM; in series [6] it was 0.04 µM.

On to `Cc1[nH]nc2[nH]c(=O)cc([C@H]3CC[C@H](NS(=O)(=O)C4CC4)CC3)c12`, for which the IC50 in series [7] is 2.5 µM; in series [5], 6.6 µM; in series [6], 0.4 µM.

`Cc1[nH]nc2[nH]c(=O)cc(CC3CCC3)c12` returned a solubility in “physchem [1]” of 16 µM (≈ 3.48 µg/mL). Moreover, the IC50 in series [2] was 1.1 µM; in series [7], 0.57 µM; in series [3], 3.4 µM; in series [8], more than 40 µM; in series [5], 0.48 µM; in series [6], 0.12 µM. Moreover, the logD in the series “physchem [4]” worked out at 2.2.

Consider `Cc1[nH]nc2[nH]c(=O)cc([C@@H]3C[C@@H]4C[C@H]3C[C@H]4CC#N)c12`, for which the IC50 in series [2] is 0.18 µM; in series [7], 0.093 µM; in series [8] it was 15 µM; in series [5], 0.42 µM.

As to `O=c1cc(C2CCCCC2)c2c(C3CC3)[nH]nc2[nH]1`, the concentration for half-maximal inhibition (IC50) in series [2] is 1.6 µM; in series [7], 1.3 µM; in series [3] it was 1.8 µM; in series [8] it was more than 40 µM; in series [5], 0.98 µM; in series [6] it was 0.5 µM. In addition, the logD in the series “physchem [4]” came to 3.1.

On to `Cc1[nH]nc2[nH]c(=O)cc([C@H]3CC[C@H](C#N)CC3)c12`, for which the half-maximal inhibitory concentration (IC50) in series [5] was 11 µM; in series [6], 0.73 µM.

The compound `Cc1[nH]nc2[nH]c(=O)cc([C@H]3CC[C@H](OC(=O)[C@@H]4CC4(F)F)CC3)c12` displayed a solubility in “physchem [1]” of 3 µM (≈ 1.05 µg/mL). Further, the IC50 in series [7] was 0.12 µM; in series [3] it was 0.42 µM; in series [8], more than 25 µM; in series [5], 0.091 µM; in series [6] it was 0.014 µM.

Regarding `Cc1[nH]nc2[nH]c(=O)cc([C@H]3CC[C@H](C(=O)NC4CC4)CC3)c12`, the concentration for half-maximal inhibition (IC50) in series [2] is 14 µM; in series [7], 9.4 µM; in series [3] it was more than 40 µM; in series [8], more than 40 µM; in series [5], 1.1 µM; in series [6], 2 µM.

In the case of `O=c1cc(C2CCCCC2)c2c[nH]nc2[nH]1`, the concentration for half-maximal inhibition (IC50) in series [2] was 24 µM; in series [7], 35 µM; in series [3] it was more than 50 µM; in series [5], 12 µM; in series [6], 15 µM.
